Measured values as given in patent publication US8541588B2, “Sulfonamide derivatives” (Pfizer Limited, priority 2009, dated 2013).
pIC50: −log10 of the molar value.

target: T1, Nav1.7 (or SCN9A) channel; HEK cells stably transfected with hSCN9A (Homo sapiens, UniProt Q15858); assay: Nav1.7 block, PatchXpress 7000 automated whole-cell voltage clamp, estimated IC50 (EIC50); format: cell-based; conditions: PatchXpress platform; hSCN9A HEK cells held at V1/2 of inactivation; estimated IC50
T1 construct: expressed in transfected cells
T1 sequence (Q15858 whole entry): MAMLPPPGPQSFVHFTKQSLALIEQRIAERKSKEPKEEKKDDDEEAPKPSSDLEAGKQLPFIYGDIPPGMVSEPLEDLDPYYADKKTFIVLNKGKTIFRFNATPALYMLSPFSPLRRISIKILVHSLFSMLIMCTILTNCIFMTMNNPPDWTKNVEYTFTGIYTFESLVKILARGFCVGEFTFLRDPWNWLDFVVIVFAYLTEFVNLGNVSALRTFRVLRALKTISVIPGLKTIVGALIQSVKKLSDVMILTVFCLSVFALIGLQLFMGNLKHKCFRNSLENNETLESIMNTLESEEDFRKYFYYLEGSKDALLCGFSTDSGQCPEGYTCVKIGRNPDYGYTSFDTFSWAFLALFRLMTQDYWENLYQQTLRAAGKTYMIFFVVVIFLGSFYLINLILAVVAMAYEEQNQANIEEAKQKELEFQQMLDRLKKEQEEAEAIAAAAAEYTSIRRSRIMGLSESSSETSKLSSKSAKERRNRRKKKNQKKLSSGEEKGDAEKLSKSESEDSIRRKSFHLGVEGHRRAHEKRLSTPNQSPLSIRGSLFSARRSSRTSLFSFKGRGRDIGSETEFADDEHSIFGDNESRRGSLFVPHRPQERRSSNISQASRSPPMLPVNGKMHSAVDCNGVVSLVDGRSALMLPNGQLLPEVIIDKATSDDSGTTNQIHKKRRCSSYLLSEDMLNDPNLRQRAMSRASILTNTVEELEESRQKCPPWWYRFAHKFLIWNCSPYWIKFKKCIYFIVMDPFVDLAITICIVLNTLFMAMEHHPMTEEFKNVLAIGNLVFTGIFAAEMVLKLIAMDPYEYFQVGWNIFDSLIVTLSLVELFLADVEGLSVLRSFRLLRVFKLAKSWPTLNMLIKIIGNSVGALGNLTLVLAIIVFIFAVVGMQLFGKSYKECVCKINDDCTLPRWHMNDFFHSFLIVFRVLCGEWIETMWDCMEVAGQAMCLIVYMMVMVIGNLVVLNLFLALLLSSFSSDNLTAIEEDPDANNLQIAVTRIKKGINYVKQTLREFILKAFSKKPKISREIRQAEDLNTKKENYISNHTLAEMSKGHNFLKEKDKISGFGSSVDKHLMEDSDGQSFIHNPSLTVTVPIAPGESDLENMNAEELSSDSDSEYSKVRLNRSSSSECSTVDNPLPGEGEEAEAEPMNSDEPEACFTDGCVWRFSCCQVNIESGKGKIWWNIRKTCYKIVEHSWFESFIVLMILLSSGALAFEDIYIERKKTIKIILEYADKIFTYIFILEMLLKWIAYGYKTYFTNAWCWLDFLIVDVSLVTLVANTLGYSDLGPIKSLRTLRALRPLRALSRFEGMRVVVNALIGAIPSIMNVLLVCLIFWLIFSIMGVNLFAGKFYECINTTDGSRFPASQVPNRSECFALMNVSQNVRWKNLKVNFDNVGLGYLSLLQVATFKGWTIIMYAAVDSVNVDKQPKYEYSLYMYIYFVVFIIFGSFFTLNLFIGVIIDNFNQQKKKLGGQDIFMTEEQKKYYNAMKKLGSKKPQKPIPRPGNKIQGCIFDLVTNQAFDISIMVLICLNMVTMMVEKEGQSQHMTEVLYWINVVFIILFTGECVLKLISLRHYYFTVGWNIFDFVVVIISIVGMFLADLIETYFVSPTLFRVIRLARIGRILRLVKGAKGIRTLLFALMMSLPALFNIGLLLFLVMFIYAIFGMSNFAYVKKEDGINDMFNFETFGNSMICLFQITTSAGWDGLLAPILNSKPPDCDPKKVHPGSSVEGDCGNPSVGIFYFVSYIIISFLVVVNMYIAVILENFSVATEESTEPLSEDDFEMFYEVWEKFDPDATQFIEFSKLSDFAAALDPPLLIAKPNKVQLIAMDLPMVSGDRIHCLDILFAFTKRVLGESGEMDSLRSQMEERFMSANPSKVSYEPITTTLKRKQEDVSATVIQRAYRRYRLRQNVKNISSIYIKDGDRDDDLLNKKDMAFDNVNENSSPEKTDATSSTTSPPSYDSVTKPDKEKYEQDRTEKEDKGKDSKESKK

Structure (SMILES) | pIC50 | IC50
N#Cc1cc(S(=O)(=O)Nc2nccs2)ccc1Oc1ccc(-n2ccc(C(F)(F)F)n2)cc1 [Example 183, 3-cyano-N-thiazol-2-yl-4-[4-(3-trifluoromethyl-pyrazol-1-yl)-phenoxy]-benzenesulfonamide] | 6.00 | –
COc1cc(-c2ccccc2Oc2ccc(S(=O)(=O)Nc3ncns3)cc2C#N)ccc1C#N [Example 13, 3-cyano-4-[(4′-cyano-3′-methoxybiphenyl-2-yl)oxy]-N-1,2,4-thiadiazol-5-ylbenzenesulfonamide] | 6.77 | –
Cc1cc(C)n(-c2ccc(Oc3ccc(S(=O)(=O)Nc4nccs4)cc3C#N)cc2)n1 [Example 186, 3-cyano-4-[4-(3,5-dimethyl-pyrazol-1-yl)-phenoxy]-N-thiazol-2-yl-benzenesulfonamide] | 5.98 | –
O=S(=O)(Nc1ncns1)c1ccc(Oc2ccc(-c3ccccc3)cc2)c(Cl)c1 [Example 149, 4-(biphenyl-4-yloxy)-3-chloro-N-1,2,4-thiadiazol-5-ylbenzenesulfonamide] | 6.04 | –
O=S(=O)(Nc1nccs1)c1ccc(Oc2ccc(-c3cocn3)cc2)c(F)c1 [Example 121, 3-fluoro-4-[4-(1,3-oxazol-4-yl)phenoxy]-N-1,3-thiazol-2-ylbenzenesulfonamide] | 4.49 | –
CC(C)Oc1ccc(-c2ccccc2Oc2ccc(S(=O)(=O)Nc3ncns3)cc2C#N)cc1 [Example 54, 3-cyano-4-[(4′-isopropoxybiphenyl-2-yl)oxy]-N-1,2,4-thiadiazol-5-ylbenzenesulfonamide] | 6.59 | –
N#Cc1ccc(-c2ccccc2Oc2ccc(S(=O)(=O)Nc3ncns3)cc2C#N)cc1 [Example 11, 3-cyano-4-[(4′-cyanobiphenyl-2-yl)oxy]-N-1,2,4-thiadiazol-5-ylbenzenesulfonamide] | 6.37 | –

Continued, values first:

pIC50 | IC50 | Structure (SMILES)
– | >10000 nM | Cc1cc(Oc2ccc(S(=O)(=O)Nc3ncc(Cl)s3)cc2C#N)n(C2CCCCC2)n1 [Example 143, N-(5-chloro-1,3-thiazol-2-yl)-3-cyano-4-[(1-cyclohexyl-3-methyl-1H-pyrazol-5-yl)oxy]benzenesulfonamide]
7.22 | – | N#Cc1cc(S(=O)(=O)Nc2nccs2)ccc1Oc1ccc(F)cc1-c1cccc(CCO)c1 [Example 153, 3-cyano-4-{[5-fluoro-3′-(2-hydroxyethyl)biphenyl-2-yl]oxy}-N-1,3-thiazol-2-ylbenzenesulfonamide]
6.42 | – | N#Cc1cc(S(=O)(=O)Nc2ncns2)ccc1Oc1ccccc1-c1ccc(F)cc1F [Example 56, 3-cyano-4-[(2′,4′-difluorobiphenyl-2-yl)oxy]-N-1,2,4-thiadiazol-5-ylbenzenesulfonamide]

same assay, conditions: estimated IC50; hSCN9A HEK cells, PatchXpress platform; Examples 283-814

Structure (SMILES) | pIC50 | IC50
CC(=O)N1CC(c2cc(Cl)ccc2Oc2ccc(S(=O)(=O)Nc3nccs3)cc2C#N)C1 [Example 640, 4-[2-(1-acetylazetidin-3-yl)-4-chlorophenoxy]-3-cyano-N-1,3-thiazol-2-ylbenzenesulfonamide] | 6.00 | –
N#Cc1cc(S(=O)(=O)Nc2nccs2)ccc1Oc1ccc(C(F)(F)F)cc1-c1cn[nH]c1 [Example 460, 4-(2-(1H-pyrazol-4-yl)-4-(trifluoromethyl)phenoxy)-3-cyano-N-(thiazol-2-yl)benzenesulfonamide] | 7.82 | –
Cc1cc(C(F)(F)F)nn1-c1ccc(Oc2ccc(S(=O)(=O)Nc3nccs3)cc2C#N)c(C(C)C)c1 [Example 356, 3-cyano-4-{2-isopropyl-4-[5-methyl-3-(trifluoromethyl)-1H-pyrazol-1-yl]phenoxy}-N-1,3-thiazol-2-ylbenzenesulfonamide] | 6.92 | –
CCn1nc(C(F)(F)F)cc1-c1cccc(Oc2ccc(S(=O)(=O)Nc3ncc(F)s3)cc2C#N)c1 [Example 479, 3-cyano-4-{3-[1-ethyl-3-(trifluoromethyl)-1H-pyrazol-5-yl]phenoxy}-N-(5-fluoro-1,3-thiazol-2-yl)benzenesulfonamide] | 6.64 | –
O=S(=O)(Nc1ncns1)c1cc(F)c(Oc2cc(Cl)c(F)cc2-c2ccn[nH]2)cc1F [Example 753, 4-[5-chloro-4-fluoro-2-(1H-pyrazol-5-yl)phenoxy]-2,5-difluoro-N-1,2,4-thiadiazol-5-ylbenzenesulfonamide] | 8.28 | –
Nc1cc(-c2cc(C(F)(F)F)ccc2Oc2cc(F)c(S(=O)(=O)Nc3ncns3)cc2Cl)ccn1 [Example 557, 4-[2-(2-aminopyridin-4-yl)-4-(trifluoromethyl)phenoxy]-5-chloro-2-fluoro-N-1,2,4-thiadiazol-5-ylbenzenesulfonamide] | 9.10 | –
O=S(=O)(Nc1ccncn1)c1ccc(Oc2ccc(Cl)cc2C2CCNCC2)c(Cl)c1 [Example 744, 3-chloro-4-(4-chloro-2-piperidin-4-ylphenoxy)-N-pyrimidin-4-ylbenzenesulfonamide] | 6.77 | –
N#Cc1cc(S(=O)(=O)Nc2ncc(F)s2)ccc1Oc1ccc(I)cc1-c1ccn[nH]1 [Example 713, 3-Cyano-N-(5-fluoro-1,3-thiazol-2-yl)-4-[4-iodo-2-(1H-pyrazol-5-yl)phenoxy]benzenesulfonamide] | 8.62 | –
Cn1nc(C(F)(F)F)cc1-c1cccc(Oc2ccc(S(=O)(=O)Nc3nccs3)cc2C#N)c1F [Example 527, 3-cyano-4-{2-fluoro-3-[1-methyl-3-(trifluoromethyl)-1H-pyrazol-5-yl]phenoxy}-N-1,3-thiazol-2-ylbenzenesulfonamide] | 6.85 | –
N#Cc1cc(S(=O)(=O)Nc2nccs2)ccc1Oc1ccc(I)cc1-c1ccn[nH]1 [Example 391, 3-cyano-4-[4-iodo-2-(1H-pyrazol-5-yl)phenoxy]-N-1,3-thiazol-2-ylbenzenesulfonamide] | 8.60 | –
Cn1nccc1-c1ccc(I)cc1Oc1ccc(S(=O)(=O)Nc2nccs2)cc1C#N [Example 359, 3-cyano-4-[5-iodo-2-(1-methyl-1H-pyrazol-5-yl)phenoxy]-N-1,3-thiazol-2-ylbenzenesulfonamide] | 7.96 | –
Cn1nccc1-c1cc(Br)ccc1Oc1ccc(S(=O)(=O)Nc2ncns2)cc1C#N [Example 501, 4-[4-bromo-2-(1-methyl-1H-pyrazol-5-yl)phenoxy]-3-cyano-N-1,2,4-thiadiazol-5-ylbenzenesulfonamide] | 7.40 | –
Cn1nccc1-c1cc(C2CC2)ccc1Oc1ccc(S(=O)(=O)Nc2nccs2)cc1C#N [Example 545, 3-cyano-4-[4-cyclopropyl-2-(1-methyl-1H-pyrazol-5-yl)phenoxy]-N-1,3-thiazol-2-ylbenzenesulfonamide] | 7.64 | –

More lines, now with the values ahead:

pIC50 | IC50 | Structure (SMILES)
6.13 | – | CCn1cc(C(F)(F)F)nc1-c1ccc(Oc2ccc(S(=O)(=O)Nc3nccs3)cc2C#N)cc1 [Example 316, 3-cyano-4-{4-[1-ethyl-4-(trifluoromethyl)-1H-imidazol-2-yl]phenoxy}-N-1,3-thiazol-2-ylbenzenesulfonamide]
8.15 | – | O=S(=O)(Nc1cscn1)c1cc(Cl)c(Oc2ccc(F)cc2-c2ccnn2C2CNC2)cc1F [Example 808, 4-[2-(1-Azetidin-3-yl-1H-pyrazol-5-yl)-4-fluorophenoxy]-5-chloro-2-fluoro-N-1,3-thiazol-4-ylbenzenesulfonamide]
– | 210 nM | CCn1nc(C(F)(F)F)cc1-c1ccc(Oc2ncc(S(=O)(=O)Nc3nccs3)cc2Cl)cc1 [Example 758, 5-chloro-6-{4-[1-ethyl-3-(trifluoromethyl)-1H-pyrazol-5-yl]phenoxy}-N-1,3-thiazol-2-ylpyridine-3-sulfonamide]
5.07 | – | CCNC(=O)c1ccc(-c2cccc(Oc3ccc(S(=O)(=O)Nc4ccc(F)cn4)cc3C#N)c2)cc1 [Example 570, 3′-(2-cyano-4-{[(5-fluoropyridin-2-yl)amino]sulfonyl}phenoxy)-N-ethylbiphenyl-4-carboxamide]
7.48 | – | Cc1n[nH]cc1-c1cc(Cl)ccc1Oc1cc(F)c(S(=O)(=O)Nc2cscn2)cc1Cl [Example 662, 5-chloro-4-[4-chloro-2-(3-methyl-1H-pyrazol-4-yl)phenoxy]-2-fluoro-N-1,3-thiazol-4-ylbenzenesulfonamide]
7.28 | – | N#Cc1cc(S(=O)(=O)Nc2ncc(Cl)s2)ccc1Oc1ccc(C(F)(F)F)cc1-c1cn[nH]c1 [Example 590, N-(5-Chloro-1,3-thiazol-2-yl)-3-cyano-4-[2-(1H-pyrazol-4-yl)-4-(trifluoromethyl)phenoxy]benzenesulfonamide]
6.01 | – | O=S(=O)(Nc1nccs1)c1ccc(Oc2ccc(Cl)cc2-c2ccn[nH]2)c(F)c1 [Example 308, 4-[4-Chloro-2-(1H-pyrazol-5-yl)phenoxy]-3-fluoro-N-1,3-thiazol-2-ylbenzenesulfonamide]
7.96 | – | Nc1ncccc1-c1cc(Cl)ccc1Oc1cc(F)c(S(=O)(=O)Nc2ncns2)cc1Cl [Example 618, 4-[2-(2-aminopyridin-3-yl)-4-chlorophenoxy]-5-chloro-2-fluoro-N-1,2,4-thiadiazol-5-ylbenzenesulfonamide]

same assay, conditions: estimated IC50; hSCN9A HEK cells, PatchXpress platform; Examples 815-1040

pIC50 | Structure (SMILES)
8.80 | N#Cc1cc(S(=O)(=O)Nc2ncns2)ccc1Oc1ccc(Cl)cc1-c1cccc(CN2CCC2)c1 [Example 852, 4-{[3′-(azetidin-1-ylmethyl)-5-chlorobiphenyl-2-yl]oxy}-3-cyano-N-1,2,4-thiadiazol-5-ylbenzenesulfonamide]
7.82 | O=S(=O)(Nc1nncs1)c1cc(Cl)c(Oc2cc(F)c(OC(F)(F)F)cc2-c2ccnnc2)cc1F [Example 963, 5-chloro-2-fluoro-4-[5-fluoro-2-pyridazin-4-yl-4-(trifluoromethoxy)phenoxy]-N-1,3,4-thiadiazol-2-ylbenzenesulfonamide]
6.62 | O=S(=O)(Nc1cscn1)c1cc(F)c(Oc2ccc(C(F)(F)F)cc2-c2ccnnc2)cc1F [Example 954, 2,5-difluoro-4-[2-pyridazin-4-yl-4-(trifluoromethyl)phenoxy]-N-1,3-thiazol-4-ylbenzenesulfonamide]
6.57 | CN1CC(n2nccc2-c2cc(Cl)ccc2Oc2cc(F)c(S(=O)(=O)Nc3ncccn3)cc2Cl)C1 [Example 1012, 5-chloro-4-{4-chloro-2-[1-(1-methylazetidin-3-yl)-1H-pyrazol-5-yl]phenoxy}-2-fluoro-N-pyrimidin-2-ylbenzenesulfonamide]
5.48 | N#Cc1cc(S(=O)(=O)Nc2cccs2)ccc1Oc1ccccc1-c1ccccc1 [Example 1007, 4-(biphenyl-2-yloxy)-3-cyano-N-2-thienylbenzenesulfonamide]
